Test results as given in patent US20230024584A1, “ANTI-CANCER COMPOSITIONS AND METHODS” (University of Kentucky Research Foundation, priority 2019, published 2023).

What was measured:
Type in all cases: cell-based
[1] = test system: SUM159, LM2, MCF-7, MB-MDA-453, 4T1 and 4T1luc cells; assay: MTT assay, breast cancer cell lines; details: 1.25, 2.5 and 5 μM; 24, 48, 72 h
Method: With reference to FIGS. 21A-21F, MTT assays were performed to determine the effect of lomitapide treatment on various breast cancer cell lines. Initially, 2500 SUM159 or LM2 cells, 5000 MCF-7 or MB-MDA-453 cells, 1000 4T1 or 4T1^1uc cells were seeded into 96-well plates. After overnight culture, vehicle (DMSO) or lomitapide (final concentration: 1.25, 2.5 and 5 μM) were added into the corresponding wells. After 24 h, 48 h, and 72 h incubation, the culture media were aspirated off and 50 μl of 0.5 mg/mL of MTT containing medium was added into each well. After 3 h incubation, 200 μl of DMSO were added into each well. The OD value of each well was read under the wavelength of 570 nm. The results are presented as mean±standard deviation (n=6) * p<0.05, compared to vehicle control (negative control) treatment group.

[2] = test system: SUM19, MCF-7, MDA-MB-453 and 4T1luc cells; assay: Suspension culture sphere formation assay, breast cancer cells; details: 1.25, 2.5 or 5 μM, 10 days
Method: With reference to FIGS. 24A and 24B, the effect of lomitapide treatment on cancer stem cell-like property of breast cancer cells was further studied. Initially, 2500 breast cancer SUM19, MCF-7, MDA-MB-453 or 4T1^luc cells were seeded into […] 24-well plates; meanwhile, vehicle control (DMSO) or lomitapide (final concentration: 1.25, 2.5 or 5 μM) were added into corresponding wells. After 10-days continuous culture, the final spheres formed were imaged and counted under an inverted phase-contrast microscope. FIG. 24A includes representative sphere images from each treatment groups. FIG. 24B includes the quantitation of sphere numbers (mean±standard deviation, n=3). * p<0.05, compared to vehicle control (negative control) treatment group.

breast cancer cells = assay: Cell cycle analysis, breast cancer cells; details: 5 μM; 24, 48 and 72 h
Method: Initially, 0.1˜0.3 million of breast cancer cells were seeded into 6 cm culture dish and cultured overnight; then, the culture media were switched into FBS free medium for serum-starvation for 24 h for cell synchronization. After synchronization, the culture media were changed into FBS-containing medium and vehicle control (DMSO) or lomitapide (final concentration: 5 μM) were added into corresponding dishes. After 24, 48 and 72 h culture, cells were harvested, fixed by ice-cold ethanol, stained by PI for flow cytometry analysis of cell cycle. The results are presented as mean±standard deviation (n=3). * p<0.05, compared to vehicle control (negative control) treatment group.

PC9GR4 and A549 cells = assay: Apoptosis (7-AAD/APC-annexin V flow cytometry), lung cancer cells; details: 1.25, 2.5 or 5 μM, 48 h
Method: With reference to FIGS. 29A and 29B, studies were also conducted to determine the effect of lomitapide treatment on apoptosis of lung cancer cells. Initially, 0.1-0.3 million PC9GR4 or A549 cells were seeded into 6 cm cell culture dishes and cultured overnight. Vehicle control (DMSO) or lomitapide (final concentration: 1.25, 2.5 or 5 μM) was added then into corresponding dishes. After 48 h incubation, the cells were harvested, stained by 7-AAD/APC-annixin V and analyzed by flow cytometry. The results are presented as mean±standard deviation (n=3). * p<0.05, compared to vehicle control (negative control) treatment group.

[3] = test system: HCT116, HT29, DLD1, PT130 and SW480 cells; assay: MTT assay, colon cancer cell lines; details: 1.25, 2.5 and 5 μM; 24, 48, 72 h
Method: With reference to FIGS. 31A-31F, studies were conducted to determine the effect of lomitapide treatment on colon cancer cell growth as determined by the MTT assay. Initially, 1000 HCT116, HT29, DLD1, PT130, or SW480 cells were seeded into 96-well plates. After overnight culture, vehicle (DMSO) or lomitapide (final concentration: 1.25, 2.5 and 5 μM) were added into the corresponding wells. After 24 h, 48 h and 72 h incubation, the culture media were aspirated off and 50 μL of 0.5 mg/mL of MTT containing medium was added into each well. After 3h incubation, 200 μL of DMSO were added into each well. The OD value of each well was read under the wavelength of 570 nm. The results are presented as mean±standard deviation (n=6) * p<0.05, compared to vehicle control (negative control) treatment group.

Substance: lomitapide
- breast cancer cell growth (MTT) [1]: significantly reduces breast cancer cell growth
- cancer stem cell-like property (sphere numbers) [2]: significantly reduces cancer stem cell-like property
- cell cycle distribution (breast cancer cells): significant G1 phase cell cycle arrest
- apoptosis (PC9GR4 and A549 cells): induces apoptosis
- colon cancer cell growth (MTT) [3]: significantly reduces colon cancer cell growth
